Measurements taken from PubChem BioAssay (NCI).
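Where inhibition never reached the appropriate level, the endpoint shown equals the highest concentration tested. Otherwise, values were interpolated linearly from a five-concentration, 48-hour dose response in 96-well plates. The concentration for 50% growth inhibition is given as GI50. TGI: total growth inhibition.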

Legend:
Assay in all cases: NCI anticancer screen, dose series, 48 h
NCI-H522 lung = tested on: NCI-H522 lung
RXF 393 renal = tested on: RXF 393 renal
NCI/ADR-RES ovarian = tested on: NCI/ADR-RES ovarian
SNB-19 CNS = tested on: SNB-19 CNS
OVCAR-4 ovarian = tested on: OVCAR-4 ovarian
HS 578T breast = tested on: HS 578T breast
786-0 renal = tested on: 786-0 renal
HOP-62 NSCLC = tested on: HOP-62 NSCLC
MDA-MB-435 = tested on: MDA-MB-435
SF-295 CNS = tested on: SF-295 CNS
CAKI-1 renal = tested on: CAKI-1 renal
K-562 leukemia = tested on: K-562 leukemia
SK-MEL-2 melanoma = tested on: SK-MEL-2 melanoma
SK-MEL-28 melanoma = tested on: SK-MEL-28 melanoma
OVCAR-5 ovarian = tested on: OVCAR-5 ovarian
MOLT-4 leukemia = tested on: MOLT-4 leukemia
HCT-15 colon = tested on: HCT-15 colon
SW-620 colon = tested on: SW-620 colon
T-47D breast = tested on: T-47D breast
COLO 205 colon = tested on: COLO 205 colon
SK-OV-3 ovarian = tested on: SK-OV-3 ovarian
SN12C renal = tested on: SN12C renal
OVCAR-3 ovarian = tested on: OVCAR-3 ovarian
HCC-2998 colon = tested on: HCC-2998 colon
HT29 colon = tested on: HT29 colon
OVCAR-8 ovarian = tested on: OVCAR-8 ovarian
LOX IMVI melanoma = tested on: LOX IMVI melanoma
NCI-H460 lung = tested on: NCI-H460 lung
M14 melanoma = tested on: M14 melanoma
HCT-116 colon = tested on: HCT-116 colon
PC-3 prostate = tested on: PC-3 prostate
UO-31 renal = tested on: UO-31 renal
U251 CNS = tested on: U251 CNS
SR leukemia = tested on: SR leukemia
BT-549 breast = tested on: BT-549 breast
EKVX NSCLC = tested on: EKVX NSCLC
NCI-H226 lung = tested on: NCI-H226 lung
HOP-92 NSCLC = tested on: HOP-92 NSCLC
MDA-MB-231 breast = tested on: MDA-MB-231 breast
MCF7 breast = tested on: MCF7 breast
NCI-H23 lung = tested on: NCI-H23 lung
SNB-75 CNS = tested on: SNB-75 CNS
SK-MEL-5 melanoma = tested on: SK-MEL-5 melanoma
UACC-257 melanoma = tested on: UACC-257 melanoma
DU-145 prostate = tested on: DU-145 prostate
SF-268 CNS = tested on: SF-268 CNS
KM12 colon = tested on: KM12 colon
HL-60(TB) leukemia = tested on: HL-60(TB) leukemia
CCRF-CEM leukemia = tested on: CCRF-CEM leukemia
SF-539 CNS = tested on: SF-539 CNS
A498 renal = tested on: A498 renal
ACHN renal = tested on: ACHN renal
RPMI-8226 leukemia = tested on: RPMI-8226 leukemia
IGROV1 ovarian = tested on: IGROV1 ovarian
UACC-62 melanoma = tested on: UACC-62 melanoma
TK-10 renal = tested on: TK-10 renal
A549 NSCLC = tested on: A549 NSCLC

O=C(NC1CCCCC1)NS(=O)(=O)c1ccc(N2N=C3c4ccccc4CC3C2c2ccc(Cl)cc2)cc1 (stereo not drawn) was tested, and the GI50 (NCI-H522 lung) was 9.43 µM, the TGI (NCI-H522 lung) was 30.9 µM and the GI50 (RXF 393 renal) was 23.2 µM. The TGI (RXF 393 renal) was 87.5 µM, the GI50 (NCI/ADR-RES ovarian) was 20.6 µM and the TGI (NCI/ADR-RES ovarian) was 69.6 µM. It also gave a GI50 (SNB-19 CNS) of 21.6 µM, a TGI (SNB-19 CNS) of 97.5 µM and a GI50 (OVCAR-4 ovarian) of 38.5 µM. The TGI (OVCAR-4 ovarian) was greater than 100 µM, the GI50 (HS 578T breast) was 4.61 µM and the TGI (HS 578T breast) was 37.2 µM. The GI50 (786-0 renal) was 13.3 µM, the TGI (786-0 renal) was 26.3 µM and the GI50 (HOP-62 NSCLC) was 15 µM. For the same molecule, the TGI (HOP-62 NSCLC) was 30.9 µM, the GI50 (MDA-MB-435) was 18.5 µM and the TGI (MDA-MB-435) was 50.3 µM. It also gave a GI50 (SF-295 CNS) of 15.9 µM, a TGI (SF-295 CNS) of 43.9 µM and a GI50 (CAKI-1 renal) of 12.8 µM. The TGI (CAKI-1 renal) was 31.8 µM, the GI50 (K-562 leukemia) was 6.71 µM and the TGI (K-562 leukemia) was 22.4 µM. For the same molecule, the GI50 (SK-MEL-2 melanoma) was 24.4 µM, the TGI (SK-MEL-2 melanoma) was 80.4 µM and the GI50 (SK-MEL-28 melanoma) was 29.7 µM. The TGI (SK-MEL-28 melanoma) was greater than 100 µM, the GI50 (OVCAR-5 ovarian) was 25.5 µM and the TGI (OVCAR-5 ovarian) was 80.4 µM. It also gave a GI50 (MOLT-4 leukemia) of 4.04 µM, a TGI (MOLT-4 leukemia) of 19.4 µM and a GI50 (HCT-15 colon) of 14.5 µM. The TGI (HCT-15 colon) was 43.7 µM, the GI50 (SW-620 colon) was 10.3 µM and the TGI (SW-620 colon) was 24.3 µM. It also gave a GI50 (T-47D breast) of 22.6 µM, a TGI (T-47D breast) greater than 100 µM and a GI50 (COLO 205 colon) of 11.7 µM. For the same molecule, the TGI (COLO 205 colon) was 34 µM, the GI50 (SK-OV-3 ovarian) was 24.5 µM and the TGI (SK-OV-3 ovarian) was greater than 100 µM. For the same molecule, the GI50 (SN12C renal) was 16.8 µM, the TGI (SN12C renal) was 32.6 µM and the GI50 (OVCAR-3 ovarian) was 18.4 µM. For the same molecule, the TGI (OVCAR-3 ovarian) was 42 µM, the GI50 (HCC-2998 colon) was 3.56 µM and the TGI (HCC-2998 colon) was 7.53 µM. For the same molecule, the GI50 (HT29 colon) was 32.5 µM, the TGI (HT29 colon) was greater than 100 µM and the GI50 (OVCAR-8 ovarian) was 19.6 µM. It also gave a TGI (OVCAR-8 ovarian) of 71.7 µM, a GI50 (LOX IMVI melanoma) of 10.3 µM and a TGI (LOX IMVI melanoma) of 21.9 µM. For the same molecule, the GI50 (NCI-H460 lung) was 4.45 µM, the TGI (NCI-H460 lung) was 30.6 µM and the GI50 (M14 melanoma) was 10.8 µM. For the same molecule, the TGI (M14 melanoma) was 24.4 µM, the GI50 (HCT-116 colon) was 5.15 µM and the TGI (HCT-116 colon) was 18.6 µM. For the same molecule, the GI50 (PC-3 prostate) was 4.05 µM, the TGI (PC-3 prostate) was 18.8 µM and the GI50 (UO-31 renal) was 20 µM. It also gave a TGI (UO-31 renal) of 40.7 µM, a GI50 (U251 CNS) of 10.1 µM and a TGI (U251 CNS) of 21.7 µM. It also gave a GI50 (SR leukemia) of 0.406 µM, a TGI (SR leukemia) of 1.85 µM and a GI50 (BT-549 breast) of 7.01 µM. It also gave a TGI (BT-549 breast) of 25.2 µM, a GI50 (EKVX NSCLC) of 5.38 µM and a TGI (EKVX NSCLC) of 22.8 µM. The GI50 (NCI-H226 lung) was 19.8 µM, the TGI (NCI-H226 lung) was 49.1 µM and the GI50 (HOP-92 NSCLC) was 10.8 µM. For the same molecule, the TGI (HOP-92 NSCLC) was 31.5 µM, the GI50 (MDA-MB-231 breast) was 12.8 µM and the TGI (MDA-MB-231 breast) was 31.2 µM. For the same molecule, the GI50 (MCF7 breast) was 2.52 µM, the TGI (MCF7 breast) was 22.2 µM and the GI50 (NCI-H23 lung) was 12.2 µM. It also gave a TGI (NCI-H23 lung) of 36.2 µM, a GI50 (SNB-75 CNS) of 13.2 µM and a TGI (SNB-75 CNS) of 85.9 µM. For the same molecule, the GI50 (SK-MEL-5 melanoma) was 3.69 µM, the TGI (SK-MEL-5 melanoma) was 18.3 µM and the GI50 (UACC-257 melanoma) was 19.7 µM. It also gave a TGI (UACC-257 melanoma) of 53 µM, a GI50 (DU-145 prostate) of 5.5 µM and a TGI (DU-145 prostate) of 21.1 µM. The GI50 (SF-268 CNS) was 6.78 µM, the TGI (SF-268 CNS) was 34.9 µM and the GI50 (KM12 colon) was 7.9 µM. It also gave a TGI (KM12 colon) of 27.9 µM, a GI50 (HL-60(TB) leukemia) of 15.8 µM and a TGI (HL-60(TB) leukemia) of 36.6 µM. The GI50 (CCRF-CEM leukemia) was 3.85 µM, the TGI (CCRF-CEM leukemia) was 23.8 µM and the GI50 (SF-539 CNS) was 12.8 µM. For the same molecule, the TGI (SF-539 CNS) was 31.9 µM, the TGI (A498 renal) was 9.2 µM and the GI50 (ACHN renal) was 13.4 µM. The TGI (ACHN renal) was 31.9 µM, the GI50 (RPMI-8226 leukemia) was 3.57 µM and the TGI (RPMI-8226 leukemia) was 22.6 µM. For the same molecule, the GI50 (IGROV1 ovarian) was 5.98 µM, the TGI (IGROV1 ovarian) was 25.5 µM and the GI50 (UACC-62 melanoma) was 14.9 µM. It also gave a TGI (UACC-62 melanoma) of 32.7 µM, a GI50 (TK-10 renal) of 4.5 µM and a TGI (TK-10 renal) of 19.8 µM. For the same molecule, the GI50 (A549 NSCLC) was 17.9 µM and the TGI (A549 NSCLC) was 47 µM.
